For 1 molecule, Activity results are on record in ChEMBL document CHEMBL1667732, “The diarylheptanoid (+)-aR,11S-myricanol and two flavones from bayberry (Myrica cerifera) destabilize the microtubule-associated protein tau” (J Nat Prod, 2011).

The nature of data set [1]: Cytotoxicity against human IMR32 cells by LDH release assay. Particulars: imr-32. The data set is classed as cell-based. (In general: LDH leaks from cells whose membrane has failed.)
Another data set relates to HeLa-C3. Kind of data set: Destabilization of microtubule-associated protein tau protein in human HeLa-C3 cells assessed as reduction in tau protein level at 50 to 250 uM. The data set is classed as cell-based.
A further data set concerns IMR-32. Description: Destabilization of microtubule-associated protein tau protein in human IMR32 cells assessed as reduction in tau protein level at 50 to 250 uM. The data set is classed as cell-based.
For the next data set, the species on record is Mus musculus. Description: Destabilization of microtubule-associated protein tau protein in mouse brain slice assessed as reduction in tau protein level at 50 to 250 uM. The data set is classed as tissue-based.
Data set [2] in a line: Cytotoxicity against human HeLaC3 cells by LDH release assay. Particulars: hela c3. It counts as cell-based.

The source made the active and inactive calls. No cut-off for these calls is given here.

For `COc1c2cc(c(O)c1OC)CCCC[C@H](O)CCc1ccc(O)c-2c1`, the Activity entry in data set [1] and in data set [2] was “Non-toxic” throughout. The outcome with HeLa-C3, in the data set on IMR-32 and in the data set filed under Mus musculus was Active.
